Test systems include BT-549 breast; HCC-2998 colon; KM12 colon; MDA-N; NCI-H23 lung; NCI-H460 lung; OVCAR-5 ovarian; U251 CNS; UO-31 renal; OVCAR-4 ovarian.
Test in all cases: DTP human tumour cell line panel, 48 h

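Five compound concentrations were applied to cells in 96-well plates for 48 hours; endpoints were derived by simple linear interpolation of the resulting dose-response curve. TGI marks complete inhibition of growth.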 Where only a bound is given, the exact number is not on record here.

Take `Clc1ccc(Cc2nc3ccccc3nc2-c2cccc(Br)c2)cc1`: the TGI with BT-549 breast was 9.93 µM; with HCC-2998 colon, 3.36 µM; in the assay with KM12 colon, 33.7 µM; with MDA-N, 4.19 µM; in the assay with NCI-H23 lung it was 26.6 µM; in the assay with NCI-H460 lung, 42.2 µM. In addition, the TGI turned out to be 16.6 µM in the assay on OVCAR-5 ovarian, 20.9 µM in the assay on U251 CNS and 3.38 µM in the assay with UO-31 renal.

Regarding `CC[N+](C)(CC)CCC(O)(c1ccccc1)c1ccccc1`, the total growth inhibition concentration (TGI) in the assay on BT-549 breast, in the assay with HCC-2998 colon, in the assay on KM12 colon, in the assay on MDA-N, in the assay with NCI-H23 lung and with NCI-H460 lung was > 100 µM each time. Also, the total growth inhibition concentration (TGI) with OVCAR-4 ovarian, with OVCAR-5 ovarian, with U251 CNS and in the assay with UO-31 renal was > 100 µM each time.

Turning to `C/C(=N\NC(=S)N1CCCCC1)c1cccc(C)n1`, the TGI worked out at 5.5 µM with BT-549 breast; 21.8 µM in the assay with HCC-2998 colon; 17.5 µM in the assay on KM12 colon; 20.3 µM with MDA-N; 10.7 µM in the assay with NCI-H23 lung; 0.334 µM in the assay on NCI-H460 lung. Further, the TGI in the assay with OVCAR-4 ovarian came out at 51.6 µM; in the assay with OVCAR-5 ovarian it was 21.1 µM; with U251 CNS, 11.5 µM; in the assay with UO-31 renal, 1.53 µM.

As to `N#Cc1nc(CCCCCN2C(=O)c3ccccc3C2=O)oc1N`, the TGI in the assay with BT-549 breast, with HCC-2998 colon, in the assay on KM12 colon, in the assay with MDA-N, with NCI-H23 lung and in the assay on NCI-H460 lung was > 100 µM throughout. For the same compound, the TGI with OVCAR-4 ovarian, with OVCAR-5 ovarian, in the assay on U251 CNS and with UO-31 renal was > 100 µM in each case.

Regarding `CCOC(=O)c1c(CN2CCNCC2)nc2ccccc2c1-c1ccccc1`, the concentration for total growth inhibition (TGI) in the assay with BT-549 breast turned out to be 31.9 µM; with HCC-2998 colon, 3.63 µM; in the assay on KM12 colon, 31.2 µM; in the assay with MDA-N, 23.3 µM; in the assay on NCI-H23 lung, 36 µM; in the assay with NCI-H460 lung, 28.4 µM. Further, the TGI was 33.1 µM with OVCAR-4 ovarian, 31.1 µM in the assay on OVCAR-5 ovarian, 27.5 µM in the assay with U251 CNS and 21.7 µM in the assay on UO-31 renal.

With `CCOC(=O)C1(C(=O)OCC)[C@H](c2ccccc2)C2=NO[C@@H]3CCC[C@H]1[C@H]23`, the total growth inhibition concentration (TGI) in the assay on BT-549 breast was > 100 µM; in the assay on HCC-2998 colon it was 60 µM; in the assay on KM12 colon it was > 100 µM; in the assay with MDA-N, > 100 µM; in the assay with NCI-H23 lung it was > 100 µM; with NCI-H460 lung it was > 100 µM. Moreover, the TGI in the assay with OVCAR-4 ovarian, with OVCAR-5 ovarian, with U251 CNS and in the assay on UO-31 renal was > 100 µM throughout.

With `Cc1ccc(C(=O)N/N=C(\N=Nc2cccc(Cl)c2)c2ccc(N(CCC#N)CCC#N)cc2C)cc1`, the total growth inhibition concentration (TGI) with BT-549 breast, in the assay on HCC-2998 colon, with KM12 colon, in the assay with MDA-N, with NCI-H23 lung and in the assay on NCI-H460 lung was > 100 µM throughout. Besides, the concentration for total growth inhibition (TGI) with OVCAR-4 ovarian, with OVCAR-5 ovarian, in the assay on U251 CNS and in the assay on UO-31 renal was > 100 µM in each case.

As to `CN(C)CCNC(=O)c1ccc(NCCCN(C)CCCNc2ccc3c(=O)n(CCN(C)C)c(=O)n4c5ccccc5c(=O)c2c34)c2c(=O)c3ccccc3[nH]c12`, the TGI came out at 1.25 µM in the assay with BT-549 breast; 0.146 µM in the assay on HCC-2998 colon; 0.319 µM in the assay on KM12 colon; 0.199 µM with MDA-N; 0.27 µM in the assay with NCI-H23 lung; 0.0296 µM in the assay on NCI-H460 lung. Further, the concentration for total growth inhibition (TGI) with OVCAR-4 ovarian is 0.197 µM; in the assay on OVCAR-5 ovarian it was 0.68 µM; with U251 CNS, 0.257 µM; with UO-31 renal, 0.301 µM.

Consider `Cc1ccc(S(=O)(=O)NNC(=O)c2cc(C)ccc2NC(=O)C23CC4CC(CC(C4)C2)C3)cc1`, for which the TGI in the assay with BT-549 breast, with HCC-2998 colon, with KM12 colon, with MDA-N, in the assay with NCI-H23 lung and in the assay on NCI-H460 lung was > 100 µM each time. Further, the TGI is 78.5 µM in the assay on OVCAR-4 ovarian, > 100 µM in the assay with OVCAR-5 ovarian, > 100 µM with U251 CNS and 44.9 µM in the assay on UO-31 renal.

For `CCOC(=O)C(NC(=O)N(C1=NCC(C)S1)C1CCCCC1)(OC)C(F)(F)F` (configuration not stated), the TGI in the assay on BT-549 breast, in the assay with HCC-2998 colon, in the assay on KM12 colon, with MDA-N, in the assay on NCI-H23 lung and in the assay on NCI-H460 lung was > 100 µM each time. Further, the TGI is > 100 µM with OVCAR-4 ovarian, > 100 µM in the assay on OVCAR-5 ovarian, 53.6 µM in the assay on U251 CNS and > 100 µM in the assay on UO-31 renal.

Consider `N=c1oc2ccc3ccccc3c2cc1C(N)=O`, for which the TGI in the assay on BT-549 breast was > 100 µM; in the assay with HCC-2998 colon, 90.6 µM; with KM12 colon it was 63 µM; with MDA-N, > 100 µM; with NCI-H23 lung, > 100 µM; in the assay on NCI-H460 lung, > 100 µM. Further, the TGI with OVCAR-4 ovarian, in the assay with OVCAR-5 ovarian and in the assay with U251 CNS was > 100 µM each time.

As for `CN1CCN(c2c(Cl)cc(Cl)c3[nH]c4ccccc4c(=O)c23)CC1`, the TGI with BT-549 breast amounted to 31.2 µM; with HCC-2998 colon it was 19.4 µM; in the assay on KM12 colon it was 23 µM; with MDA-N, 20.7 µM; with NCI-H23 lung, 27 µM; with NCI-H460 lung, 24.1 µM. Moreover, the concentration for total growth inhibition (TGI) is 46.2 µM with OVCAR-4 ovarian, 29.3 µM in the assay with OVCAR-5 ovarian, 19.7 µM in the assay on U251 CNS and 17.3 µM with UO-31 renal.

Turning to `COc1ccc2c(c1)C(N)=C(c1ccccc1)C2=O`, the TGI in the assay on BT-549 breast, in the assay with HCC-2998 colon, in the assay on KM12 colon, in the assay with MDA-N, with NCI-H23 lung and in the assay on NCI-H460 lung was > 100 µM each time. In addition, the TGI with OVCAR-4 ovarian, in the assay with OVCAR-5 ovarian and in the assay on U251 CNS was > 100 µM throughout.

As for `N#CC(C#N)=C1C(C#N)=C(N)NC12OCCO2`, the total growth inhibition concentration (TGI) in the assay on BT-549 breast, in the assay with HCC-2998 colon, with KM12 colon, with MDA-N, with NCI-H23 lung and in the assay on NCI-H460 lung was > 100 µM in each case. Moreover, the TGI in the assay on OVCAR-4 ovarian, in the assay with OVCAR-5 ovarian, in the assay on U251 CNS and in the assay with UO-31 renal was > 100 µM each time.

A word on the TGI: it is the concentration giving total growth inhibition. Read a high TGI as less potent growth arrest.
